# Data as given in ChEMBL document CHEMBL1156868, “One step radiosynthesis of 6-[(18)F]fluoronicotinic acid 2,3,5,6-tetrafluorophenyl ester ([(18)F]F-Py-TFP): a new prosthetic group for efficient labeling of biomolecules with fluorine-18” (J Med Chem, 2010).
# Target: Integrin alpha-V/beta-3 (Homo sapiens, UniProt P05106+P06756)
# Experiment: Displacement of [125I]echistatin from alphaVbeta3 receptor in human EA-Hy926 cells by gamma-counting
# Assay type: cell-based
# Chain of Integrin alpha-V/beta-3 (P05106 27-788 limits assumed): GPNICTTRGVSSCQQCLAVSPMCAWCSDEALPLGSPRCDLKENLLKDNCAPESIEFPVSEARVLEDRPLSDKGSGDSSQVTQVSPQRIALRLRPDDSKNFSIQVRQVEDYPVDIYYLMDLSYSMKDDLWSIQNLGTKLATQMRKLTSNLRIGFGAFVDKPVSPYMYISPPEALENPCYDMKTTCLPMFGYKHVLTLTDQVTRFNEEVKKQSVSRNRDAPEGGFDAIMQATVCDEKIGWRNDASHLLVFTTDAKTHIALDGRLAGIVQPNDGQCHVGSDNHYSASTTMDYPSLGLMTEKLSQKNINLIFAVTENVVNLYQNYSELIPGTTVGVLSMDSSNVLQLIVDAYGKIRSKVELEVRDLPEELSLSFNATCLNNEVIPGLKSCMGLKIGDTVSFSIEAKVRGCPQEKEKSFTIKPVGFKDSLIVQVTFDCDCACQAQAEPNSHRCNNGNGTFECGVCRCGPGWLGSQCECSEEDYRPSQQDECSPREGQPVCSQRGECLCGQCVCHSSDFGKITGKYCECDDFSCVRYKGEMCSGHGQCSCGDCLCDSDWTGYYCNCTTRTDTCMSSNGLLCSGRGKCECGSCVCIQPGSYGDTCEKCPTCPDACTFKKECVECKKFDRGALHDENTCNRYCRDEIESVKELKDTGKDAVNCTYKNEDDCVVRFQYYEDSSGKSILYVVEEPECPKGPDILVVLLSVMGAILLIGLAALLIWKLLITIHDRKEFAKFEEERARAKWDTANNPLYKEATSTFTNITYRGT
# Chain of Integrin alpha-V/beta-3 (P06756 31-889 limits assumed): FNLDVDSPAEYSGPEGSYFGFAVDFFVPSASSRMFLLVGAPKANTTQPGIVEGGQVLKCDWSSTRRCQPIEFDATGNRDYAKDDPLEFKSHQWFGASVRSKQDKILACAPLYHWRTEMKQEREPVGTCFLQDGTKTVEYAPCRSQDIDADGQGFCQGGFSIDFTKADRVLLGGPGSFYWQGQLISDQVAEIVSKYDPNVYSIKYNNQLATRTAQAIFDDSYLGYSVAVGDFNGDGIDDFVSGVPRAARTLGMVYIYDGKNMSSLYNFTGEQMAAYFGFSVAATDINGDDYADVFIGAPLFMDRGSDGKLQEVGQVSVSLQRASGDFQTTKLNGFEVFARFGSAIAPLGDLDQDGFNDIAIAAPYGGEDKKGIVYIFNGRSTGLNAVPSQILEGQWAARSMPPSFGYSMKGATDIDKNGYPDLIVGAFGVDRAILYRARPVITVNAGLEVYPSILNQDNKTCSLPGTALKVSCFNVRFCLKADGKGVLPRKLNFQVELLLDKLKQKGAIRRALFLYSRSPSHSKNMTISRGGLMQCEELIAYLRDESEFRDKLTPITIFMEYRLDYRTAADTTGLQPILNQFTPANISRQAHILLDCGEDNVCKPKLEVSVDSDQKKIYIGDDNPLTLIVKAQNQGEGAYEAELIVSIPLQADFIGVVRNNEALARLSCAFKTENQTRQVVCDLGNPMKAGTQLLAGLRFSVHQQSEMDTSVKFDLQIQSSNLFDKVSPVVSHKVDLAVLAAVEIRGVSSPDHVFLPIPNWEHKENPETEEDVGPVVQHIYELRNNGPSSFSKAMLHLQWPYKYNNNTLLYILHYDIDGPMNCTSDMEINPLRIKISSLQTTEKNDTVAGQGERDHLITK
# Chain of Integrin alpha-V/beta-3 (P06756 891-1048 limits assumed): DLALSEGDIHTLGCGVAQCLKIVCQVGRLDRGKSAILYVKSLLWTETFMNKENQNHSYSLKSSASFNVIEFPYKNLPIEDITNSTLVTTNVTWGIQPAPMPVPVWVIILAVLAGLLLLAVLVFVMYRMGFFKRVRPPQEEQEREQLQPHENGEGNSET
row,Ki,SMILES
1,14.8 nM,Cc1cc(C)c(S(=O)(=O)N[C@H](CNC(=O)c2cn(CCCNC(=O)COCC(=O)NCCOCCOCCOCCOCCOCCOCCOCCOCCOCCOCCOCCNC(=O)c3ccc(F)nc3)c3cc(CNc4ncc[nH]4)ccc3c2=O)C(=O)O)c(C)c1
2,19.1 nM,Cc1cc(C)c(S(=O)(=O)N[C@H](CNC(=O)c2cn(CCCNC(=O)c3ccc(F)nc3)c3cc(CNc4ncc[nH]4)ccc3c2=O)C(=O)O)c(C)c1
3,2 nM,NC(=O)COCC(=O)NCCOCCOCCOCCNC(=O)[C@@H]1CSCC(=O)N[C@@H](CCCCNC(=O)COCC(=O)NCCOCCOCCOCCOCCOCCNC(=O)CONC(=O)c2ccc(F)nc2)C(=O)N[C@H]2CSSC[C@H](NC(=O)[C@H](CC(=O)O)NC(=O)CNC(=O)[C@H](CCCN=C(N)N)NC2=O)C(=O)N[C@@H](Cc2ccccc2)C(=O)C1
